Data set [1] concerns Hep-G2 cells. It is filed as cell-based. The following applies: for Fluorescence Intensity, DAPI Image: 380 nm exc; for Fluorescence Intensity, DAPI Image / Fluorescence Intensity, Alexa Image: complex 1×10^−6 M; for Fluorescence Intensity, Alexa Image: 640 nm exc. The procedure: (§1) The culture medium was prepared by dissolving 13.4 g of DMEM-high glucose (Sigma, USA) in 1 L of distilled water. Sodium bicarbonate (3.7 g L^−1) was added to the medium and the pH of the medium was adjusted to 7.4. This medium was then sterilized by passing through a sterile filter assembly fitted with a 0.22 μm filter (Millipore, USA) using a vacuum pump. Later, the medium was stored in pre-sterilized Borosil polypropylene bottles, at 4° C., until further use. To the prepared culture medium an antibiotic mixture (20 μL mL^−1 of 100× concentrate, Sigma, USA) was added. Fetal bovine serum (FBS) (Sigma, USA) was also added to the medium to give a final concentration of 10% (to 900 mL medium, 100 mL of FBS was added).
Hep G2 cells (Human Hepatocellular carcinoma cell lines), which was obtained, from National Centre for Cell Science, Pune, India, were stored in cryovials at −196° C. in liquid nitrogen, in a medium containing 70% FBS, 10% dimethyl sulfoxide (DMSO) and 20% DMEM. For revival, the vials were thawed by placing them in a water-bath maintained at 37° C. for 2-3 minutes followed by centrifugation at 3000 rpm for 3 minutes. Supernatent was removed and the pellet after suspending in medium were transferred into a radiation sterilized culturing flask, T-25 cm^2 (BD Biosciences) inside the laminar flow. Subsequently, the flask was placed in a CO2 incubator for 2 h. The viable cells stick to the culture flask while the dead cells remain in the medium. Later the medium was replaced with fresh medium containing 10% FBS and incubated till a cell confluency of 70-80%. The medium was then discarded following desired confluency. Following confluency, since the Hep G2 cells are adherent in nature, they were trypsinised by using 1 mL of trypsin (0.25%)—EDTA (0.53 mM) buffer containing 0.9% sodium chloride for […]. The cells were then transferred to a centrifuge tube and centrifuged at 2000 rpm for 3 min, followed by the removal of the supernatant.
For sub culturing, fresh DMEM containing 10% FBS was added under aseptic conditions. Cells were flushed with the help of pipette (1 mL) until the cells are completely dispersed into the medium. The cells were then diluted in a sterile complete medium at 1:3 times and transferred into fresh culture flasks. Then the flasks were placed inside CO2 incubator.
The 1:6 Sq-BSA Complex whose sensitivity of pH lies within the physiological region and due to the ratiometric fluorescence response (FIG. 14) was used in this system for monitoring minor pH fluctuations inside cells ratiometrically. Hep-G2 cells were pre-incubated with phosphate buffer of different pH (6.5, 7.0, 7.5) and kept for 10 minutes. The 1:6 Sq-BSA complex (1×10^−6 M), which was prepared by mixing 5 μl of Sq (4×10^−5 M, prepared in acetonitrile) and 15 μl of BSA protein (1.2×10^−3 M, prepared in phosphate buffer 4.2) was added to each cells and kept for 10 minutes. The cells were then centrifuged and diluted for 2 times and then images has taken using confocal fluorescence microscope using alexa (640 nm exc) and DAPI (380 nm exc) as filters. With respect to the pH of the wells the fluorescence intensity from the DAPI image was enhanced and the alexa image got quenched. Quantitative data for pH measurements in cells were obtained using bio-rad image data, explorer software (table 2). The viability of the cells after incubation of Sq-BSA complex was confirmed by the bright-field transmission measurements (FIG. 15 c, bottom).

The nature of data set [2]: Fluorescence detection of thiols (GSH) by Sq, selectivity and sensitivity. The note with it: pH 8.0. The protocol: Sq detects GSH quantitatively with high sensitivity (2 nM) (FIG. 3). Formula 1 prepared in 30% ACN/25 mM phosphate buffer is used for monitoring thiol variations inside cells. […] The aggregation was confirmed by temperature-dependent UV/Vis and emission spectroscopic studies in 15% acetonitrile/water mixture (FIG. 5a and FIG. 5b). The self-assembly of Sq was established further by atomic force microscopy (AFM), transition electron microscopy (TEM) and DLS analysis. […] Formula 1 prepared in 25 mM phosphate buffer solution at a pH of 4.2 labels serum albumin proteins noncovalently, which is evident from the UV-vis and emission spectroscopic studies. The broad absorption (550-850 nm) corresponding to the absorption of Sq aggregates narrowed with a turn-on fluorescence at 700 nm exc @ 640 nm) emission upon addition of BSA protein was observed (FIGS. 7a & 7b). The solution of the Sq dye in phosphate buffer has a blue color but nonemissive (FIG. 7c, top). […] The 1:6 Sq-BSA complex whose pH sensitivity lies within the physiological region and due to the ratiometric fluorescence response (FIG. 14) this system was used for monitoring minor pH fluctuations inside cells ratiometrically. […] Quantitative data for pH measurements in cells were obtained using bio-rad image data explorer software (table 2). […]

Data set [3] is described as follows: Stability of the dye over pH. It is filed as physicochemical. From the text: Even though noncovalent interaction of serum albumin proteins and covalent interaction of thiol containing small molecules with squaraine dyes are known in individual cases, achieving both type of interaction by a single probe in a reversible fashion with an external stimulus remains challenging. Therefore, the first and foremost task was identifying an appropriate switchable dye molecule, which is stable at a broad pH window with distinct emission wavelengths during the different modes of interactions and having a tunable pH responsive interaction. […] This absorption band is similar to the absorption of Sq in acetonitrile in which the molecule exists in the monomeric state. […] Sq (6 μM) in a 25 mM phosphate buffer (pH 4.2) has no emission at 700 nm due to the aggregation. Upon addition of BSA protein, a gradual enhancement in the fluorescence intensity at 700 nm was observed (FIG. 7b). This fluorescence enhancement is due to the disassembly of aggregates and the consequent noncovalent interaction between Sq and BSA protein. The solution of the Sq dye in 25 mM phosphate buffer has a blue color and at this stage the dye is non emissive (FIG. 7c, top).

A short description of data set [4]: Self-assembly morphology by AFM, TEM and DLS. It is filed as physicochemical. From the text:
The self-assembly of Sq was established by atomic force microscopy (AFM), transition electron microscopy (TEM) and DLS analysis. […] The dynamic light scattering (DLS) measurements of a buffer solution containing.

A further data set deals with BSA protein (Bos taurus, UniProt P02769). Briefly: Noncovalent (pH 4.2) and covalent (pH 8.2) labeling of serum albumin, fluorescence turn-on. It is filed as binding, Bovine. The following applies: 25 mM phosphate buffer, 6 μM. The protocol: Stock solution of Sq (1.2×10^−3 M) was prepared in acetonitrile and stock solution of BSA protein (2.4×10^−3M) was prepared in 25 mM phosphate buffer at pH 4.2. 15 μL of Sq from the stock solution is added to the 25 mM phosphate buffer at pH 4.2, to make the resulting concentration of the solution into 6×10^−6 M. To this solution different volumes ranging from 7.5-150 μL of BSA protein were added and the absorption and emission spectra were recorded each time after 20 minutes. The broad absorption (550-850 nm) corresponding to the absorption of Sq aggregates narrowed with a turn-on fluorescence at 700 nm (λexc @ 640 nm) emission was observed.
Stock solution of Sq (1.2×10^−3 M) was prepared in acetonitrile and stock solution of BSA protein (1.2×10^−3 M) was prepared in 25 mM phosphate buffer at a pH of 8.2. 15 μL of Sq from the stock solution is added to 25 mM phosphate buffer at pH 8.2, to make the resulting concentration of the solution to 6×10^−6 M. To this solution different volumes ranging from 1.5-36 μL of BSA protein were added and the absorption and emission spectra were recorded at 15 minutes interval. The broad absorption (550-850 nm) corresponding to the absorption of Sq aggregates quenched with concomitant formation of an absorption at 380 nm was observed (FIG. 8a). […]

A further data set addresses HSA protein (Homo sapiens, UniProt P02768). Described as above. The note with it: 25 mM phosphate buffer, 6 μM. It is filed as binding. An excerpt:
(§2) This selectivity apparently originates from the Sq disassembly driven by the molecular recognition sites of the serum albumin proteins.

The subject of data set [5] is other thiol and nonthiol containing proteins (heamoglobin, glutathione reductase, bromelain). Briefly: Selectivity against other thiol and nonthiol containing proteins. It is filed as binding.
Source text: as §2

Data set [6] can be described thus: Selectivity against small thiol containing molecules in self-assembled state. The following applies: 10 equivalent; Sq 6×10^−6 M; 480 nm. An excerpt:
The selectivity of our nanoprobe towards serum albumin proteins from small thiol containing molecules like cysteine, homocysteine, glutathione, mercaptoethanol, dithiothreitol, cystamine and thioglycolic acid at a higher pH of 8.2, where the dye is expected to undergo thiol alkylation reaction is investigated. […] Bar diagram represents the selectivity of Sq (6×10^−6 M) for BSA and HSA protein (6×10^−6 M) from other small thiol containing molecules (FIG. 10) which clearly indicate that the probe in its self-assembled state is able to detect serum albumin protein among other thiol containing small molecules.

The test system of data set [7] is Hep-G2 cells. The experiment in a line: Detection of minor thiol fluctuations inside HepG2 cells pre-treated with NEM. The class given is cell-based, Human. The note with it: NEM 3×10^−3 M to 3×10^−6 M, 15 minutes; dye 10 minutes. The procedure:
as §1
Hep G2 cells (Human Hepatocellular carcinoma cell lines), which was obtained, from National Centre for Cell Science, Pune, India, were stored in cryovials at −196° C. in liquid nitrogen, in a medium containing 70% FBS, 10% dimethyl sulfoxide (DMSO) and 20% DMEM. […]
Hep-G2 cells were pre-incubated with NEM of various concentrations (3×10^−3 M to 3×10^−6 M) and kept for 15 minutes. […] The cells were then centrifuged and diluted for 2 times and then images were-taken using confocal fluorescence microscope using alexa (640 nm exc) and DAPI (380 nm exc) as filters.

Where two headings read alike, the source gives them in different places.

HSA protein, sequence (P02768 25-609): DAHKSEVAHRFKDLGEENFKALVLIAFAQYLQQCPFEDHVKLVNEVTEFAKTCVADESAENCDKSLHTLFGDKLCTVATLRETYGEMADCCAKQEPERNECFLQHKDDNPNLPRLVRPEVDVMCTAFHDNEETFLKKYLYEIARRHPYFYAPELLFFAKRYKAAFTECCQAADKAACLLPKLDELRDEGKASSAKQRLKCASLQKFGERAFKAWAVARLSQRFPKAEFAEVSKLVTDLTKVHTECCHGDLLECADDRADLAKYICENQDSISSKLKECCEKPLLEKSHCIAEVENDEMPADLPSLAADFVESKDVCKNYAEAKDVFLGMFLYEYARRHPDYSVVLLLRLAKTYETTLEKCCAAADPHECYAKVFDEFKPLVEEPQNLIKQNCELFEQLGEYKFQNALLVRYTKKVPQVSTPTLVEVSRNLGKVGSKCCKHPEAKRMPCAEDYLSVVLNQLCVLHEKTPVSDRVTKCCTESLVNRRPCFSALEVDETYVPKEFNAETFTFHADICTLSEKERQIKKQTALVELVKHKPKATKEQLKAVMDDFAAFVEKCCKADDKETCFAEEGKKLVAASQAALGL
BSA protein, sequence (P02769 25-607): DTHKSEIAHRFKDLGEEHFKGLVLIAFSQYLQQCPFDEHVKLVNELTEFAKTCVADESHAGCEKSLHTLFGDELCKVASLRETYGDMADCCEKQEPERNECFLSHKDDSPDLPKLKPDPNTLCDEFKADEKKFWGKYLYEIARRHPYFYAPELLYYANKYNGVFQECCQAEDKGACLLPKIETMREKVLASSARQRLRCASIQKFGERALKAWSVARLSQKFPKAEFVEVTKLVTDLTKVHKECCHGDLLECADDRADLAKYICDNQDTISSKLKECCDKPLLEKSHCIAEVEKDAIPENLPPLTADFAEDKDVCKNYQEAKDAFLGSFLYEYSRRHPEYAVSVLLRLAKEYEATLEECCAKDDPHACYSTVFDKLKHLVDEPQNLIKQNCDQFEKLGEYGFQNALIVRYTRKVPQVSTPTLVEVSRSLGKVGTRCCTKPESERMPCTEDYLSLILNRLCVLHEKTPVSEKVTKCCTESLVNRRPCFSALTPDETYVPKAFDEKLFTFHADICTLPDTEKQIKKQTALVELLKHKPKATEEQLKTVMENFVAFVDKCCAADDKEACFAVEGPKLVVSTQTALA

For “1:6 Sq-BSA complex: complex of squaraine dye Sq with BSA protein in ratio 1:6”, the “viability of the cells after incubation” value in the data set with Hep-G2 cells [1] is given as “confirmed”. Further, the “Fluorescence Intensity, DAPI Image” value in the data set on Hep-G2 cells [1] (pH 6.5) stood at 8.5; in the data set on Hep-G2 cells [1] (pH 7.0) it was 24.61; with Hep-G2 cells [1] (pH 7.5), 30.18. The figures for the “Fluorescence Intensity, Alexa Image” value in the data set on Hep-G2 cells [1] (pH 6.5), with Hep-G2 cells [1] (pH 7.0) and in the data set on Hep-G2 cells [1] (pH 7.5) were 39.84, 21.47 and 18.08, respectively.

As for `CCCCN(CCCC)c1ccc(C2=C(O)C(c3ccc(/C=C/c4cc(OC)ccc4OC)n3CCOCCOCCOC)C2=O)cc1` (centres unmarked) [Sq, (E)-2-(4-(dibutylamino)phenyl)-4-(5-(2,5-dimethoxystyryl)-1-(2-(2-(2-methoxyethoxy)ethoxy)ethyl)-1H-pyrrol-2-yl)-3-hydroxycyclobut-2-enone], in data set [2] (20 equivalence of 9 amino acids, 1 equivalence Cys, Hcy, GSH), the “selectivity toward thiols among amino acids (fluorescence at 510 nm)” value is given as “highly selective to GSH”. The “detection limit for GSH (fluorescent intensity at 510 nm)” value in data set [2] (30% ACN/25 mM phosphate buffer, λexc 380 nm) is listed as 2 nM. Moreover, in data set [3], the “pH range of stability” value is on record as 2-12. Besides, the “diameter of spherical aggregates (AFM and TEM)” value in data set [4] (6×10^−6 M in 25 mM phosphate buffer, pH 4.2) was 100-300 nm. Also, the “mean diameter of aggregates (DLS)” value in data set [4] (buffer solution, Sq 6 μM) is recorded as 200 nm. The “fluorescence response with BSA at pH 8.2 (covalent labeling)” value at BSA protein (λexc 380 nm) is recorded as “green emission at 480 nm”. For the same molecule, the “fluorescence response with BSA at pH 4.2 (noncovalent labeling)” value at BSA protein (λexc 640 nm) is “fluorescence enhancement at 700 nm”. Also, the “fluorescence response with HSA at pH 8.2 (covalent labeling)” value on HSA protein (λexc 380 nm) was “green emission at 480 nm”. Moreover, the “fluorescence response with HSA at pH 4.2 (noncovalent labeling)” value on HSA protein (λexc 640 nm) was “fluorescence enhancement at 700 nm”. Besides, in data set [5] (0.10 equivalence, 480 nm), the “fluorescence response with heamoglobin, glutathione reductase, bromelain at pH 8.2” value was “unable to produce fluorescence enhancement at 480 nm”. Also, the “fluorescence response with other thiols and nonthiol containing proteins at pH 4.2” value in [5] (10 equivalence, 700 nm) was “no fluorescence enhancement in the NIR region”. The “fluorescence response with thiol containing small molecules at pH 8.2” value in data set [6] is recorded as “unable to generate much fluorescent enhancement in the 480 nm region”. Also, in the data set on Hep-G2 cells [7], the “fluorescence intensity in cells versus NEM concentration” value is given as “gradual quenching”.

These data come from patent publication US9791451B2, “Squaraine based fluorescent probe and a process for the preparation thereof” (Council of Scientific & Industrial Research, priority 2013, dated 2017).
